Test results published in publication PMC3924858 (Journal of medicinal chemistry, 2013).

Target: human mGlu5 receptor (Homo sapiens, UniProt P41594)
Sequence (P41594 21-1180 isoform P41594-2 limits assumed): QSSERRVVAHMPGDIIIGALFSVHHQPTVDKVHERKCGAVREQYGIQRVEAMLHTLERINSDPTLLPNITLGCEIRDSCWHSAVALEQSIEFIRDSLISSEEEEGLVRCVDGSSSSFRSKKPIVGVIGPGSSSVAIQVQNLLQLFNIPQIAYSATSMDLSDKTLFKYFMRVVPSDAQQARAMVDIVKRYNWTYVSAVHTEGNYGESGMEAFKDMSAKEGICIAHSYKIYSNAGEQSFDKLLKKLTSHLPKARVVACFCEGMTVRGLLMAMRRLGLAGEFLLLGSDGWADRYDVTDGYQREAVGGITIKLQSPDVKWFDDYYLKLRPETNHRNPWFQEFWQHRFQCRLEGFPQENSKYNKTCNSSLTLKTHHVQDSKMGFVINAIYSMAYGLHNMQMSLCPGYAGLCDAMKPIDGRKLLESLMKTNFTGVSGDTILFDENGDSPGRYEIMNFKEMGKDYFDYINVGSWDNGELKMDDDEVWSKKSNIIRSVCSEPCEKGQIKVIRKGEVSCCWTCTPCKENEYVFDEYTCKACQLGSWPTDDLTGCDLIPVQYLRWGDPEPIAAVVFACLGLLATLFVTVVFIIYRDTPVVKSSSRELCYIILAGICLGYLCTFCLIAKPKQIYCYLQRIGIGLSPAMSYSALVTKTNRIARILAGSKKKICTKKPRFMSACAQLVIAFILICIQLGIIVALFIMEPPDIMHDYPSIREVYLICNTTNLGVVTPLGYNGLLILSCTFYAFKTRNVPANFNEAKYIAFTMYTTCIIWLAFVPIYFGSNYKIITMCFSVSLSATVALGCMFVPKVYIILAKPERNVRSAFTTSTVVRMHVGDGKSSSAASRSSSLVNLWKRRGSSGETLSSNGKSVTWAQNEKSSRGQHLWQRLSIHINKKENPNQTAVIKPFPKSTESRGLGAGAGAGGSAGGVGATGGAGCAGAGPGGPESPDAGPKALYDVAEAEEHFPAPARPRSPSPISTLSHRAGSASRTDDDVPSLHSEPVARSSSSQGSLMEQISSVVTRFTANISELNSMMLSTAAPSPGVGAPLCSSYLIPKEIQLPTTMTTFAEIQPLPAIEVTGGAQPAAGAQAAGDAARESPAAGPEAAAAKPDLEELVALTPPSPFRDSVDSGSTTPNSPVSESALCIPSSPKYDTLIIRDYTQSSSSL

SMILES: O=C1c2sc(COc3ccccc3)nc2CCN1c1ccc(F)cn1 [16p, 5-(5-Fluoro-pyridin-2-yl)-2-phenoxymethyl-6,7-dihydro-5H-thiazolo[5,4-c]pyridin-4-one]
- Glu Max: 94 (89-99) %
